We go through 24 compounds from patent publication US11629135B2 (JUBILANT PRODEL LLC, priority 2017, dated 2023).

For orientation: IC50 means the concentration needed to halve the response being measured.

The structures appear in SMILES notation.

The target in this assay is T1, PD-1/PD-L1 interaction (Homo sapiens, UniProt Q9NZQ7).
T1 construct: Tag1 or Tag2 (undisclosed kit tag); purchased CisBio 63ADK000CPAPEG
T1 sequence (Q9NZQ7 19-238 limits assumed): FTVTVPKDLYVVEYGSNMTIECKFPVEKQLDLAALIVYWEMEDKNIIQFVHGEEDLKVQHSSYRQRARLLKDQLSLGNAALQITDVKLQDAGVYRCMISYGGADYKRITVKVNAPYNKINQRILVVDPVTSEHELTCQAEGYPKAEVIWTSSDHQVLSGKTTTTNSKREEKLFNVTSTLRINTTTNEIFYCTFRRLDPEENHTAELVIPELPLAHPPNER
Briefly: PD-1/PD-L1 Homogenous Time-Resolved Fluorescence (HTRF) binding assay. The conditions noted are these: Biochemical PD1/PD-L1 inhibition. How it is done: PD-L1 Enzyme Assay: Homogenous Time-Resolved Fluorescence (HTRF) Binding Assay
All binding studies were performed using PD-1/PD-L1 Binding Assay Kit from CisBio (Catalog #63ADK000CPAPEG), according to the manufacturer's protocol. The interaction between Tag1-PD-1 and […] was detected by anti-Tag1-Eu^3+ (HTRF donor) and anti-Tag2-XL665 (HTRF acceptor). When the donor and acceptor antibodies were brought to close proximity due to PD-1 and PD-L1 binding, excitation of the donor antibody triggered fluorescent resonance energy transfer (FRET) towards the acceptor antibody, which in turn emitted specifically at 665 nm. This specific signal is positively proportional to PD-1/PD-L1 interaction. The compounds blocking PD-1/PD-L1 interaction will cause a reduction in HTRF signal. The necessary reagents were mixed in the following order: 2 μl compounds (or diluents buffer), 4 μl PD-L1 protein, 4 μl PD-1 protein. After an incubation of 15 minutes, 5 μl of anti-Tag1-Eu^3+ and 5 μl of anti-Tag2-XL665 were added. The plate was sealed and incubated at RT for 1 h. The fluorescence emission was read at two different wavelengths (665 nm and 620 nm) on a BMG PheraStar® multiplate reader. Results were calculated from the 665 nm and 620 nm fluorescence signal and expressed in HTRF ratio=(665 nm/620 nm)×[…].
In general terms: Time-resolved FRET reads energy transfer from a long-lived donor to a nearby acceptor.
As to `CCOc1nc(OCc2cccc(-c3ccccc3)c2C)ncc1CN1CCC1C(=O)O` (stereo not drawn) [Compound 31, 1-((4-ethoxy-2-((2-methyl-[1,1′-biphenyl]-3-yl)methoxy)pyrimidin-5-yl)methyl)azetidine-2-carboxylic acid], the IC50 lay within 100 to 500 nM.

Turning to `COc1nc(OCc2cccc(-c3ccccc3)c2C)nc(OC)c1CN1CCOCC1C(=O)O` (stereo not drawn) [Compound 38, 4-((4,6-dimethoxy-2-((2-methyl-[1,1′-biphenyl]-3-yl)methoxy)pyrimidin-5-yl)methyl)morpholine-3-carboxylic acid], the concentration for half-maximal inhibition (IC50) is less than 100 nM.

`COc1nc(OCc2cccc(-c3ccccc3)c2C)nc(OC)c1CNC(CO)(CO)CO` [Compound 35, 2-(((4,6-dimethoxy-2-((2-methyl-[1,1′-biphenyl]-3-yl)methoxy)pyrimidin-5-yl)methyl)amino)-2-(hydroxymethyl)propane-1,3-diol] came in with an IC50 of less than 100 nM.

`COc1nc(OCc2cccc(-c3ccc4c(c3)OCCO4)c2C)nc(OC)c1CN1C[C@H](O)C[C@H]1C(=O)O` [Compound 11, (2S,4R)-1-((2-((3-(2,3-dihydrobenzo[b][1,4]dioxin-6-yl)-2-methylbenzyl)oxy)-4,6-dimethoxypyrimidin-5-yl)methyl)-4-hydroxypyrrolidine-2-carboxylic acid] displayed an IC50 of less than 100 nM.

For the compound `CCOc1nc(OCc2cccc(-c3ccccc3)c2C)ncc1CN1CCCC[C@H]1C(=O)O` [Compound 22, (S)-1-((4-ethoxy-2-((2-methyl-[1,1′-biphenyl]-3-yl)methoxy)pyrimidin-5-yl)methyl)piperidine-2-carboxylic acid], the IC50 lay within 100 to 500 nM.

Consider `COc1nc(OCc2cccc(-c3ccccc3)c2C)nc(OC)c1CN1CCC[C@H]1C(=O)O` [Compound 36, ((4,6-dimethoxy-2-((2-methyl-[1,1′-biphenyl]-3-yl)methoxy)pyrimidin-5-yl)methyl)-L-proline], for which the IC50 was 100 to 500 nM.

Turning to `COc1nc(OCc2cccc(-c3ccccc3)c2C)ncc1CN1CCC[C@@H]2C[C@@]21C(=O)O` (racemic) [Compound 48], the half-inhibitory concentration (IC50) was more than 500 nM.

Consider `Cc1c(COc2ncc(CN3CCCC[C@H]3C(=O)O)c(OCCCCO)n2)cccc1-c1ccccc1` [Compound 10, (S)-1-((4-(4-hydroxybutoxy)-2-((2-methyl-[1,1′-biphenyl]-3-yl)methoxy)pyrimidin-5-yl)methyl)piperidine-2-carboxylic acid], for which the IC50 lay within 100 to 500 nM.

With `COC(=O)C1COCCN1Cc1c(OC)nc(OCc2cccc(-c3ccccc3)c2C)nc1OC` (stereo not drawn) [Compound 37, Methyl 4-((4,6-dimethoxy-2-((2-methyl-[1,1′-biphenyl]-3-yl)methoxy)pyrimidin-5-yl)methyl) morpholine-3-carboxylate], the IC50 is more than 500 nM.

The compound `COc1nc(OCc2cccc(-c3ccccc3)c2C)ncc1CN1CCCC[C@H]1CC(=O)O` [Compound 60, (S)-2-(1-((4-methoxy-2-((2-methyl-[1,1′-biphenyl]-3-yl)methoxy)pyrimidin-5-yl)methyl)piperidin-2-yl) acetic acid] displayed an IC50 of 100 to 500 nM.

The compound `COc1ccc(-c2cccc(COc3nc(OC)c(CNCCNC(C)=O)c(OC)n3)c2C)cc1OC` [Compound 57, N-(2-(((2-((3′,4′-dimethoxy-2-methyl-[1,1′-biphenyl]-3-yl)methoxy)-4,6-dimethoxypyrimidin-5-yl)methyl)amino)ethyl)acetamide] displayed an IC50 of more than 500 nM.

The compound `CCOc1nc(OCc2cccc(-c3ccccc3)c2C)nc(OCC)c1CN1C[C@H](O)C[C@H]1C(=O)O` [Compound 39, (2S,4R)-1-((4,6-diethoxy-2-((2-methyl-[1,1′-biphenyl]-3-yl)methoxy)pyrimidin-5-yl)methyl)-4-hydroxypyrrolidine-2-carboxylic acid] returned a concentration for half-maximal inhibition (IC50) of 100 to 500 nM.

As to `COc1nc(OCc2cccc(-c3ccccc3F)c2C)ncc1CNCCNC(C)=O` [Compound 20, N-(2-(((2-((2′-fluoro-2-methyl-[1,1′-biphenyl]-3-yl)methoxy)-4-methoxypyrimidin-5-yl)methyl)amino)ethyl)acetamide], the IC50 is more than 500 nM.

For `CCOc1nc(OCc2cccc(-c3ccccc3)c2C)ncc1CNC(CC(N)=O)C(=O)O` (stereo not drawn) [Compound 29, ((4-ethoxy-2-((2-methyl-[1,1′-biphenyl]-3-yl)methoxy)pyrimidin-5-yl)methyl)asparagine], the IC50 is 100 to 500 nM.

`COc1ccc(-c2cccc(COc3nc(OC)c(CN4C[C@H](O)C[C@H]4C(=O)O)c(OC)n3)c2C)cc1OC` [Compound 58] gave an IC50 of more than 500 nM.

With `CCOc1nc(OCc2cccc(-c3ccccc3)c2C)ncc1CNC1(C(=O)O)CC1` [Compound 23, 1-(((4-ethoxy-2-((2-methyl-[1,1′-biphenyl]-3-yl)methoxy)pyrimidin-5-yl)methyl)amino)cyclopropane-1-carboxylic acid], the IC50 is 100 to 500 nM.

On to `COc1nc(OCc2cccc(-c3ccccc3)c2C)nc(OC)c1CN1C[C@H](O)C[C@H]1C(=O)O` [Compound 34, (2S,4R)-1-((4,6-dimethoxy-2-((2-methyl-[1,1′-biphenyl]-3-yl)methoxy)pyrimidin-5-yl)methyl)-4-hydroxypyrrolidine-2-carboxylic acid], for which the IC50 was less than 100 nM.

As for `CCOc1nc(OCc2cccc(-c3ccccc3)c2C)ncc1CN(C)CC(=O)O` [Compound 2, N-((4-ethoxy-2-((2-methyl-[1,1′-biphenyl]-3-yl)methoxy)pyrimidin-5-yl)methyl)-N-methyl glycine], the IC50 was more than 500 nM.

`COc1nc(OCc2cccc(-c3ccc4c(c3)OCCO4)c2C)nc(OC)c1CN1CCCC[C@H]1C(=O)O` [Compound 55, (S)-1-((2-((3-(2,3-dihydrobenzo[b][1,4]dioxin-6-yl)-2-methylbenzyl)oxy)-4,6-dimethoxypyrimidin-5-yl)methyl)piperidine-2-carboxylic acid] came in with an IC50 of less than 100 nM.

Compound `COc1nc(OCc2cccc(-c3ccccc3F)c2C)ncc1CN1CCCC[C@H]1C(=O)O` [Compound 19, (S)-1-((2-((2′-fluoro-2-methyl-[1,1′-biphenyl]-3-yl)methoxy)-4-methoxypyrimidin-5-yl)methyl)piperidine-2-carboxylic acid] yielded an IC50 of 100 to 500 nM.

`Cc1c(COc2ncc(CN3C[C@H](O)C[C@H]3C(=O)O)c(OCc3ccc(F)c(C#N)c3)n2)cccc1-c1ccccc1` [Compound 54, (2S,4R)-1-((4-((3-cyano-4-fluorobenzyl)oxy)-2-((2-methyl-[1,1′-biphenyl]-3-yl)methoxy)pyrimidin-5-yl)methyl)-4-hydroxypyrrolidine-2-carboxylic acid]: the IC50 lay in the range of 100 to 500 nM.

Take `CC(=O)NCCNCc1cnc(OCc2cccc(-c3ccccc3)c2C)nc1OCc1ccccc1` [Compound 32, N-(2-(((4-(benzyloxy)-2-((2-methyl-[1,1′-biphenyl]-3-yl)methoxy)pyrimidin-5-yl)methyl)amino)ethyl)acetamide]: the IC50 was more than 500 nM.

`CCOc1nc(OCc2cccc(-c3ccccc3)c2C)nc(OCC)c1CN1CCCC[C@H]1C(=O)O` [Compound 40] gave an IC50 of 100 to 500 nM.

`Cc1c(COc2ncc(CN3CCCC[C@H]3C(=O)O)c(OCc3ccc(F)c(C#N)c3)n2)cccc1-c1ccccc1` [Compound 8, (S)-1-((4-((3-cyano-4-fluorobenzyl)oxy)-2-((2-methyl-[1,1′-biphenyl]-3-yl)methoxy)pyrimidin-5-yl)methyl)piperidine-2-carboxylic acid] yielded an IC50 of more than 500 nM.
